Measured values published in ChEMBL document CHEMBL2021793, “Synthesis, biological evaluation and structure-activity relationships of glycyrrhetinic acid derivatives as novel anti-hepatitis B virus agents” (Bioorg Med Chem Lett, 2012).

Experiments:
[1] = Cytotoxicity against human HepG2(2.2.15) cells; type: cell-based
Hepatitis B virus [2] = assay: Antiviral activity against Hepatitis B virus infected in human HepG2(2.2.15) cells assessed as reduction in hepatitis B surface antigen release; type: functional, organism-based
Hepatitis B virus [3] = assay: Antiviral activity against Hepatitis B virus infected in human HepG2(2.2.15) cells assessed as reduction in hepatitis B e-antigen release; type: functional, organism-based
Hepatitis B virus [4] = assay: Antiviral activity against Hepatitis B virus infected in human HepG2(2.2.15) cells assessed as reduction in viral DNA replication; type: functional, organism-based
[5] = Selectivity index, ratio of CC50 for human HepG2(2.2.15) cells to IC50 for HBV by viral DNA replication detection assay; type: functional

IC50 (Hepatitis B virus [2]) [µM] | IC50 (Hepatitis B virus [3]) [µM] | IC50 (Hepatitis B virus [4]) [µM] | SMILES | CC50 [1] [µM] | Ratio CC50/IC50 [5]
> 805 | > 805 | 18.1 | CC1(C)[C@@H](O)CC[C@]2(C)[C@H]3C(=O)C=C4[C@@H]5C[C@@](C)(C(=O)OCc6ccc(Br)cc6F)CC[C@]5(C)CC[C@@]4(C)[C@]3(C)CC[C@@H]12 | > 1430 | >79
> 986 | > 986 | 5.71 | CC1(C)[C@@H](O)CC[C@]2(C)[C@H]3C(=O)C=C4[C@@H]5C[C@@](C)(C(=O)OCc6ccc(I)cc6)CC[C@]5(C)CC[C@@]4(C)[C@]3(C)CC[C@@H]12 | > 986 | >172.6
129 | > 1250 | 47.7 | CC1(C)[C@@H](O)CC[C@]2(C)[C@H]3C(=O)C=C4[C@@H]5C[C@@](C)(C(=O)OCCCCCCO)CC[C@]5(C)CC[C@@]4(C)[C@]3(C)CC[C@@H]12 | 67.3 | 1.4
1070 | > 1360 | 171 | CC1(C)[C@@H](O)CC[C@]2(C)[C@H]3C(=O)C=C4[C@@H]5C[C@@](C)(C(=O)OCc6cccnc6)CC[C@]5(C)CC[C@@]4(C)[C@]3(C)CC[C@@H]12 | 321 | 1.9
> 1200 | > 1200 | 139 | CCOC(=O)COC(=O)[C@@]1(C)CC[C@]2(C)CC[C@]3(C)C(=CC(=O)[C@@H]4[C@@]5(C)CC[C@H](O)C(C)(C)[C@@H]5CC[C@]43C)[C@@H]2C1 | > 1200 | >8.7
> 1370 | > 1370 | 5.36 | CC1(C)[C@@H](O)CC[C@]2(C)[C@H]3C(=O)C=C4[C@@H]5C[C@@](C)(C(=O)OCc6ccc(C(F)(F)F)cc6)CC[C@]5(C)CC[C@@]4(C)[C@]3(C)CC[C@@H]12 | > 1370 | >255.9
835 | > 1720 | 198 | CCOCCOC(=O)[C@@]1(C)CC[C@]2(C)CC[C@]3(C)C(=CC(=O)[C@@H]4[C@@]5(C)CC[C@H](O)C(C)(C)[C@@H]5CC[C@]43C)[C@@H]2C1 | 541 | 2.7
> 1030 | > 1030 | > 257 | CCCCCCCCCCOC(=O)[C@@]1(C)CC[C@]2(C)CC[C@]3(C)C(=CC(=O)[C@@H]4[C@@]5(C)CC[C@H](O)C(C)(C)[C@@H]5CC[C@]43C)[C@@H]2C1 | > 1030 | –

More lines, now with the values behind:

SMILES | IC50 (Hepatitis B virus [2]) [µM] | IC50 (Hepatitis B virus [3]) [µM] | IC50 (Hepatitis B virus [4]) [µM] | CC50 [1] [µM] | Ratio CC50/IC50 [5]
C=CCCOC(=O)[C@@]1(C)CC[C@]2(C)CC[C@]3(C)C(=CC(=O)[C@@H]4[C@@]5(C)CC[C@H](O)C(C)(C)[C@@H]5CC[C@]43C)[C@@H]2C1 | > 1750 | > 1750 | 332 | > 1750 | >5.3
CC1(C)[C@@H](O)CC[C@]2(C)[C@H]3C(=O)C=C4[C@@H]5C[C@@](C)(C(=O)OCc6ccccc6)CC[C@]5(C)CC[C@@]4(C)[C@]3(C)CC[C@@H]12 | > 2010 | > 2010 | 153 | 2010 | 13.1
CC1(C)[C@@H](O)CC[C@]2(C)[C@H]3C(=O)C=C4[C@@H]5C[C@@](C)(C(=O)OCC6CC6)CC[C@]5(C)CC[C@@]4(C)[C@]3(C)CC[C@@H]12 | 678 | > 1100 | 67 | 696 | 10.4
CC(=O)O[C@H]1CC[C@]2(C)[C@H]3C(=O)C=C4[C@@H]5C[C@@](C)(C(=O)O)CC[C@]5(C)CC[C@@]4(C)[C@]3(C)CC[C@H]2C1(C)C [ACETOXOLONE] | 1000 | > 518 | 121 | 518 | 4.3
CC1(C)[C@@H](OC(=O)c2cc(=O)c3ccccc3o2)CC[C@]2(C)[C@H]3CC=C4[C@@H]5C[C@@](C)(C(=O)OCC(N)=O)CC[C@]5(C)CC[C@@]4(C)[C@]3(C)CC[C@@H]12 | > 944 | > 944 | > 236 | > 944 | –
COC(=O)[C@@]1(C)CC[C@]2(C)CC[C@]3(C)C(=CC(=O)[C@@H]4[C@@]5(C)CC[C@H](O)C(C)(C)[C@@H]5CC[C@]43C)[C@@H]2C1 | > 1740 | > 1740 | > 444 | > 1740 | –
CC1(C)[C@@H](O)CC[C@]2(C)[C@H]3C(=O)C=C4[C@@H]5C[C@@](C)(C(=O)OCc6cccc7cccnc67)CC[C@]5(C)CC[C@@]4(C)[C@]3(C)CC[C@@H]12 | > 1700 | > 1700 | 15.3 | > 1700 | >111
CC1(C)[C@@H](O)CC[C@]2(C)[C@H]3C(=O)C=C4[C@@H]5C[C@@](C)(C(=O)OCc6cc(F)cc(F)c6)CC[C@]5(C)CC[C@@]4(C)[C@]3(C)CC[C@@H]12 | > 1230 | > 1230 | > 307 | > 1230 | –
CCOC(=O)CCCCCOC(=O)[C@@]1(C)CC[C@]2(C)CC[C@]3(C)C(=CC(=O)[C@@H]4[C@@]5(C)CC[C@H](O)C(C)(C)[C@@H]5CC[C@]43C)[C@@H]2C1 | 209 | > 1750 | 47.2 | 54.7 | 1.2
CC1(C)[C@@H](O)CC[C@]2(C)[C@H]3C(=O)C=C4[C@@H]5C[C@@](C)(C(=O)OCc6cccc(Cl)c6)CC[C@]5(C)CC[C@@]4(C)[C@]3(C)CC[C@@H]12 | > 1850 | > 1850 | 529 | > 1850 | >3.5
CCCCCCOC(=O)[C@@]1(C)CC[C@]2(C)CC[C@]3(C)C(=CC(=O)[C@@H]4[C@@]5(C)CC[C@H](O)C(C)(C)[C@@H]5CC[C@]43C)[C@@H]2C1 | > 1700 | > 1700 | 66.2 | 175 | 2.6
CC1(C)[C@@H](O)CC[C@]2(C)[C@H]3C(=O)C=C4[C@@H]5C[C@@](C)(C(=O)OCc6ccc(OC(F)(F)F)cc6)CC[C@]5(C)CC[C@@]4(C)[C@]3(C)CC[C@@H]12 | > 1130 | > 1130 | 160 | > 1130 | >7.1
CC1(C)[C@@H](O)CC[C@]2(C)[C@H]3CC=C4[C@@H]5C[C@@](C)(C(=O)OCc6ccc(Br)cc6F)CC[C@]5(C)CC[C@@]4(C)[C@]3(C)CC[C@@H]12 | > 1530 | > 1530 | > 382 | 1150 | –
CCOC(=O)CCCOC(=O)[C@@]1(C)CC[C@]2(C)CC[C@]3(C)C(=CC[C@@H]4[C@@]5(C)CC[C@H](OC(=O)/C=C/c6cc(OC)c(OC)c(OC)c6)C(C)(C)[C@@H]5CC[C@]43C)[C@@H]2C1 | > 1230 | > 1230 | > 307 | > 1230 | –
COc1cc(/C=C/C(=O)O[C@H]2CC[C@]3(C)[C@H]4CC=C5[C@@H]6C[C@@](C)(C(=O)OCc7ccc(Br)cc7F)CC[C@]6(C)CC[C@@]5(C)[C@]4(C)CC[C@H]3C2(C)C)cc(OC)c1OC | > 1030 | > 1030 | > 259 | 935 | –
